Measured values published in US20090170804A1, “PIRFENIDONE/TOLL-LIKE RECEPTOR (TLR) AGONIST COMPOSITIONS AND METHODS FOR USING THEM TO STIMULATE PRODUCTION OF GRANULOCYTE COLONIZING STIMULATING FACTOR (G-CSF)” (priority 2005, published 2009).
Like-named read-outs stand apart in the source and are kept apart here.

Experiments:
Human PBMCs [1] = assay: LPS-mediated cytokine induction in human PBMCs (BioRad Multiplex Cytokine Platform); format: cell-based; design: TNF-α release in PBMCs (FIG. 9) / G-CSF release in PBMCs (FIG. 9): dose or concentration left out as unconfirmed; conditions: for IC50: PBMC, 1 h pirfenidone pretreatment, LPS, optimal expression at 8 hours
Description: Human PBMCs (10^5 cells per well) were pretreated with pirfenidone (5 mM to 5 μM) for one hour in a 96-well plate and then stimulated with LPS ([…] to 0.01 ng/ml) for 1, 2, 8, or 24 hours at 37° C. Subsequently, cells were spun and supernatants collected and assayed for protein expression using the BioRad Multiplex Cytokine Platform, which enables 17 different cytokines to be analyzed simultaneously: G-CSF, GM-CSF, IFN-γ, IL-1β, IL-2, IL-4, IL-5, IL-6, IL-7, IL-8, IL-10, IL-12 (p70), IL-13, IL-17, MCP-1, MIP-1β, and TNF-α.

Human PBMCs [2] = assay: p38 inhibitors: TLR-agonist-mediated TNF-α and G-CSF release from human PBMCs; format: cell-based; conditions: 1 h pretreatment, then LPS, Fibrin, LTA, PG or CpG for 24 hours
Text: The effect of various p38 inhibitors on LPS-mediated TNF-α and G-CSF release from human PBMCs was examined. Briefly, human PBMCs (10^5 cells per well) were pretreated with pirfenidone, a hydroxyl-pirfenidone derivative, SB202190 (commercially available p38 inhibitor), or SB203580 (commercially available p38 inhibitor) for one hour in a 96-well plate and then stimulated with lipopolysaccharide (LPS, binds TLR4), Fibrin (binds TLR4), lipoteichoic acid (LTA, binds TLR2), peptidoglycan (PG, binds TLR2), or CpG (bacterial DNA, binds TLR9) for 24 hours at 37° C. Subsequently, cells were spun and supernatants collected and assayed for G-CSF expression.
Each TLR agonist alone is set to 1 (positive control) and the subsequent release of G-CSF in the presence of p38 inhibitors is determined relative to the positive control.

[3] = in the presence of pirfenidone (lmM)

Row | Compound | IC50 (Human PBMCs [1]; human PBMCs, read-out: pirfenidone IC50 for IL-1β (LPS-mediated cytokine induction)) [µM] | IC50 (Human PBMCs [1]; human PBMCs, read-out: pirfenidone IC50 for TNF-α (LPS-mediated cytokine induction)) [µM] | LPS-mediated release of G-CSF (Human PBMCs [1]; human PBMCs) | LPS-mediated release of GM-CSF (Human PBMCs [1]; human PBMCs) | LPS-mediated release of IFN-γ (Human PBMCs [1]; human PBMCs) | LPS-mediated release of IL-1β (Human PBMCs [1]; human PBMCs) | LPS-mediated release of IL-10 (Human PBMCs [1]; human PBMCs) | LPS-mediated release of MCP-1 (Human PBMCs [1]; human PBMCs) | LPS-mediated release of TNF-α (Human PBMCs [1]; human PBMCs) | constitutive (but not LPS-mediated) expression of IL-6 (Human PBMCs [1]; human PBMCs) | constitutive (but not LPS-mediated) expression of IL-8 (Human PBMCs [1]; human PBMCs) | constitutive (but not LPS-mediated) expression of MIP-1β (Human PBMCs [1]; human PBMCs) | LPS-induced expression of G-CSF augmented by (Human PBMCs [1]; [3]) [%] | LPS-induced expression of IL-10 augmented by (Human PBMCs [1]; [3]) [%] | TNF-α expression in PBMCs (FIG. 1) (Human PBMCs [1]; pirfenidone 185 μg/mL and LPS 1 μg/mL) | G-CSF release in PBMCs (FIG. 9) (Human PBMCs [1]; pirfenidone and LPS) | TNF-α release in PBMCs (FIG. 9) (Human PBMCs [1]; pirfenidone and LPS) | TLR-induced G-CSF release (FIG. 12, fold induction relative to TLR agonist alone) (Human PBMCs [2]) | induction of expression of IL-2, IL-4, IL-5, IL-7, IL-12, IL-13, or IL-17 (Human PBMCs [1]; human PBMCs stimulated with LPS)
1 | Cc1ccc(=O)n(-c2ccccc2)c1 [pirfenidone, 5-methyl-1-phenyl-2-(1H)-pyridone] | ~2500 | ~1000 | augmented | inhibited | inhibited | inhibited | augmented | augmented | inhibited | inhibited | inhibited | inhibited | 100 | 35 | reduced | increased | decreased | augmented | –
2 | lipopolysaccharide [LPS] | – | – | – | – | – | – | – | – | – | – | – | – | – | – | – | – | – | – | did not induce
